Reference: patent US10494332B2, “Protein tyrosine phosphatases or SHP2 inhibitors and uses thereof” (Indiana University Research and Technology Corporation, priority 2015, dated 2019)

Legend:
Type in all cases: biochemical
LMWPTP = molecular target: T1, LMWPTP (Homo sapiens, UniProt P24666); test: PTP inhibition assay (pNPP)
T1 sequence (P24666 1-158): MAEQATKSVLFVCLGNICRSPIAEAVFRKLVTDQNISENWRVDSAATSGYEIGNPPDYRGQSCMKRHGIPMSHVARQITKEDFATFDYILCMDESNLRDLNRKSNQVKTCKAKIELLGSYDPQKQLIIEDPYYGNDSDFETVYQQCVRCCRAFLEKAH

TbPTP1 = TbPTP1 (Trypanosoma brucei brucei, UniProt Q38AT7); test: PTP inhibition assay (pNPP); details: IC50 TbPTP1, pNPP at Km, pH 7.0, 25° C.
Chain of TbPTP1 (Q38AT7 entry or part of it): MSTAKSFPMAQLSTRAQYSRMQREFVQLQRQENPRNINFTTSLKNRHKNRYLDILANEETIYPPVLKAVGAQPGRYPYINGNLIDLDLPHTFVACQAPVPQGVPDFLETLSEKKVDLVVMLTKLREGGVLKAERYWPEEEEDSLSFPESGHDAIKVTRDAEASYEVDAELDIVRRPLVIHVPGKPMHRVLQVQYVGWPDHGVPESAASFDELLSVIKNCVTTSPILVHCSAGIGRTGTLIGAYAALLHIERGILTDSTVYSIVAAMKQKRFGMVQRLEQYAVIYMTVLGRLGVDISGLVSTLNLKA

SHP1 = SHP1 (Homo sapiens, UniProt P29350); test: PTP inhibition assay (pNPP); details: pNPP at Km, pH 7.0, 25° C.
Chain of SHP1 (P29350 whole entry): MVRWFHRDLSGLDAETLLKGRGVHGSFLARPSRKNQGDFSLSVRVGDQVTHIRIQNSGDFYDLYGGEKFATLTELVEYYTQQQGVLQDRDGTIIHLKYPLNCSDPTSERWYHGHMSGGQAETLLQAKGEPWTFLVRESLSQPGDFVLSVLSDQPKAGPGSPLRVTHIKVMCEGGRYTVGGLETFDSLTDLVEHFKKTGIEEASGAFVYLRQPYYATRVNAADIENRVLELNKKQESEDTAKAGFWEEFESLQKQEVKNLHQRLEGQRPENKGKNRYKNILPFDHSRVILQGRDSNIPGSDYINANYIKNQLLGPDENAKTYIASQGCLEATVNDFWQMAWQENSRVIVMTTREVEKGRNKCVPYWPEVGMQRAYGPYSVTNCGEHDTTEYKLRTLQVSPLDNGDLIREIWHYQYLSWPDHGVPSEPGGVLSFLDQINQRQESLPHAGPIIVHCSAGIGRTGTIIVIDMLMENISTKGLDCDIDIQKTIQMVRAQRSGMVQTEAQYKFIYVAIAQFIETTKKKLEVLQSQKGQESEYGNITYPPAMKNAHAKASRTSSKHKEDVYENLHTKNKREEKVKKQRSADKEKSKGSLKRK

STEP = molecular target: T2, STEP (Homo sapiens, UniProt P54829); test: PTP inhibition assay (pNPP); details: IC50 STEP, pNPP at Km, pH 7.0, 25° C.
T2 sequence (P54829 1-565): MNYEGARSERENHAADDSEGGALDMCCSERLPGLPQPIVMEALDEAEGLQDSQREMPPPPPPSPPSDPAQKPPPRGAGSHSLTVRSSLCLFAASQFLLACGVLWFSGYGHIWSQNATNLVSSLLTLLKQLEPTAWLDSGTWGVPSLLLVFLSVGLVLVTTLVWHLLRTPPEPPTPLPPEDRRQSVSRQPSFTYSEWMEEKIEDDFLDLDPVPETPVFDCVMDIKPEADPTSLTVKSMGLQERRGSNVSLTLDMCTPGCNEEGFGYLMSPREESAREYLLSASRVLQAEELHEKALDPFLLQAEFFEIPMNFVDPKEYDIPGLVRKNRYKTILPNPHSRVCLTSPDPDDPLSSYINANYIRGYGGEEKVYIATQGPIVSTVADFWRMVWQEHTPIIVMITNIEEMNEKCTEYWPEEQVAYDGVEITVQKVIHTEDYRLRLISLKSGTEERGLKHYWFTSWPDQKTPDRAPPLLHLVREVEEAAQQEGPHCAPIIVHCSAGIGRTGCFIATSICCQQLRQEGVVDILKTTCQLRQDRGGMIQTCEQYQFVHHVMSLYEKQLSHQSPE

VHX = molecular target: T3, VHX (Homo sapiens, UniProt Q9NRW4); test: PTP inhibition assay (pNPP); details: IC50 VHX, pNPP at Km, pH 7.0, 25° C.
T3 sequence (Q9NRW4 1-184): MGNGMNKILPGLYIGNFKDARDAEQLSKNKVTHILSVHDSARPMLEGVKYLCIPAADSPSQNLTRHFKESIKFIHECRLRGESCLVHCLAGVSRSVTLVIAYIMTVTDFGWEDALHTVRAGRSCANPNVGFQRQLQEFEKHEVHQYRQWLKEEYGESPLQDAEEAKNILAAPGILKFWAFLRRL

Laforin = molecular target: T4, Laforin (Homo sapiens, UniProt O95278); test: PTP inhibition assay (pNPP); details: for IC50: pNPP at Km, pH 7.0, 25° C., read-out: IC50 Laforin
T4 sequence (O95278 1-331): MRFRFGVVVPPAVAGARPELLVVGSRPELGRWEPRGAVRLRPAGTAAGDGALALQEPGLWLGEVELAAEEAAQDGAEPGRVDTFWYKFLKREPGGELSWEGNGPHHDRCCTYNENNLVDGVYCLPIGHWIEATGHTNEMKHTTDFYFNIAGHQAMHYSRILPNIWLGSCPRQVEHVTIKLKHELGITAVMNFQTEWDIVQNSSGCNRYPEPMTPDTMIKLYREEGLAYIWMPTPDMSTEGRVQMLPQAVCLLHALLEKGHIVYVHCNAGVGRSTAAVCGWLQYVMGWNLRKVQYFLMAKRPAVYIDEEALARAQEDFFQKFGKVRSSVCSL

PEST = molecular target: T5, PEST (Homo sapiens, UniProt Q05209); test: PTP inhibition assay (pNPP); details: pNPP at Km, pH 7.0, 25° C.; read-out: IC50 PEST
T5 sequence (Q05209 1-780): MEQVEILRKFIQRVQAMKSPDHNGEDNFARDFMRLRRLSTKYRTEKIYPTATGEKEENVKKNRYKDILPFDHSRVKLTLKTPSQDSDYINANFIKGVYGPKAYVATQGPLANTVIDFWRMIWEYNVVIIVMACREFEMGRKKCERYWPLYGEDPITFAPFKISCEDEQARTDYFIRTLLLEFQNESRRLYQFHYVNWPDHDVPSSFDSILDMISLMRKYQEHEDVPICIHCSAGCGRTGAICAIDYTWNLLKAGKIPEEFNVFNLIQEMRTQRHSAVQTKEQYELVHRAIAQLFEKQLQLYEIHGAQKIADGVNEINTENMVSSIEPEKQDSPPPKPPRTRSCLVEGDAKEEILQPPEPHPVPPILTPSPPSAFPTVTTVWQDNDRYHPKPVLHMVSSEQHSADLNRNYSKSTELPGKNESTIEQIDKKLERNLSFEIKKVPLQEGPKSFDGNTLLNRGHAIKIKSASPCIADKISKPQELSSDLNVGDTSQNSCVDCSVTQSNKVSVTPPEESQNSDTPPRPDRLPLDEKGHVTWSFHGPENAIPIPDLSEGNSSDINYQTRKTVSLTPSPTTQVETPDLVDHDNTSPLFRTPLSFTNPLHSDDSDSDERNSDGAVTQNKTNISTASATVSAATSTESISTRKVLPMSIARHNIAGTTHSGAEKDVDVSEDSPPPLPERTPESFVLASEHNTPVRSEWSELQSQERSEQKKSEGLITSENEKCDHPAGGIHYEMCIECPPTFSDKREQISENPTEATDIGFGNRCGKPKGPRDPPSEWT

PTP1B = molecular target: T6, PTP1B (Homo sapiens, UniProt P18031); test: PTP inhibition assay (pNPP); details: pNPP at Km, pH 7.0, 25° C.
T6 sequence (P18031 1-435): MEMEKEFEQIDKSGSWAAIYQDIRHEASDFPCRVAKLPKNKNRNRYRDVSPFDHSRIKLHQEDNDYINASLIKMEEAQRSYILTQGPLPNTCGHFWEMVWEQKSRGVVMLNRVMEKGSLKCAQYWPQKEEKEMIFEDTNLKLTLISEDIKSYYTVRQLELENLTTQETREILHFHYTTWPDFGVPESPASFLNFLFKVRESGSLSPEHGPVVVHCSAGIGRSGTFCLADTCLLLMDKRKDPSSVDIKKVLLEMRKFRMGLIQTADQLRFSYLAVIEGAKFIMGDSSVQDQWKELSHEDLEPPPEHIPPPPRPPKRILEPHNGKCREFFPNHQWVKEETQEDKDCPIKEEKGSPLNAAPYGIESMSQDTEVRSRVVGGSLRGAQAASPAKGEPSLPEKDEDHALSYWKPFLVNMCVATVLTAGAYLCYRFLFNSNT

LYP = molecular target: T7, LYP (Homo sapiens, UniProt Q9Y2R2); test: PTP inhibition assay (pNPP); details: pNPP at Km, pH 7.0, 25° C.
T7 sequence (Q9Y2R2 1-807): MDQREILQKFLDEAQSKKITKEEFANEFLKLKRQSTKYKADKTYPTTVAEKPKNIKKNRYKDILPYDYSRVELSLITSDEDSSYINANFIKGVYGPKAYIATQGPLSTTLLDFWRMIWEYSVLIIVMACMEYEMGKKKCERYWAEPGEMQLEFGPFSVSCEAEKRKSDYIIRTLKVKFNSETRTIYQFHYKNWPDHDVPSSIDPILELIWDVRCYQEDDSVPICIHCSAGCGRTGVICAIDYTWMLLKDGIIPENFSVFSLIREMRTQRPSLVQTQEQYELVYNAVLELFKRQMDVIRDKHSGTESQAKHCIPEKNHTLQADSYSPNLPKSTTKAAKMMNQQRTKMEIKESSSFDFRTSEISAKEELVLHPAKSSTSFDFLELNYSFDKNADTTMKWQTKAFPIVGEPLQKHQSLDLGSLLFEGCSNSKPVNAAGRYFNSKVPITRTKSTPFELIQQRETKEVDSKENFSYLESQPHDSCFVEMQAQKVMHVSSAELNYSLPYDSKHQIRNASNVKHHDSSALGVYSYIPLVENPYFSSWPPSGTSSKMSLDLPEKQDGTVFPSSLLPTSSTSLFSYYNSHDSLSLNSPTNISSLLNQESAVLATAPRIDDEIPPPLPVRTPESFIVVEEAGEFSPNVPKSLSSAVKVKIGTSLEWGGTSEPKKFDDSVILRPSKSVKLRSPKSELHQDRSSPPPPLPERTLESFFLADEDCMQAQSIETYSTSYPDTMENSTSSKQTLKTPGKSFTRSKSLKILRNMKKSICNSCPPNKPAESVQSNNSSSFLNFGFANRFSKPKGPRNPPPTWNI

SHP2 = molecular target: T8, SHP2 (Homo sapiens, UniProt Q06124); test: SHP2 phosphatase inhibition assay (pNPP); details: pNPP at Km, pH 7.0, 25° C.; read-out: IC50 SHP2
T8 sequence (Q06124 224-528): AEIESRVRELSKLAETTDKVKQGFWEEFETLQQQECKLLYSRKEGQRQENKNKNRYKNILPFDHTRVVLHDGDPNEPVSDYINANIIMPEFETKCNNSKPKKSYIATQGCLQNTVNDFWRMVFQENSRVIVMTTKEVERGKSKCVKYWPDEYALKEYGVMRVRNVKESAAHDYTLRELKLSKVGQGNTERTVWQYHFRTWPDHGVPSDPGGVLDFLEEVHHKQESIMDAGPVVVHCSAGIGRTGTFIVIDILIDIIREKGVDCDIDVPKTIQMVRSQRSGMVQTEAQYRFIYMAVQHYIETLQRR

CD45 = molecular target: T9, CD45 (Homo sapiens, UniProt P08575); test: PTP inhibition assay (pNPP); details: pNPP at Km, pH 7.0, 25° C.
T9 sequence (P08575 26-1306): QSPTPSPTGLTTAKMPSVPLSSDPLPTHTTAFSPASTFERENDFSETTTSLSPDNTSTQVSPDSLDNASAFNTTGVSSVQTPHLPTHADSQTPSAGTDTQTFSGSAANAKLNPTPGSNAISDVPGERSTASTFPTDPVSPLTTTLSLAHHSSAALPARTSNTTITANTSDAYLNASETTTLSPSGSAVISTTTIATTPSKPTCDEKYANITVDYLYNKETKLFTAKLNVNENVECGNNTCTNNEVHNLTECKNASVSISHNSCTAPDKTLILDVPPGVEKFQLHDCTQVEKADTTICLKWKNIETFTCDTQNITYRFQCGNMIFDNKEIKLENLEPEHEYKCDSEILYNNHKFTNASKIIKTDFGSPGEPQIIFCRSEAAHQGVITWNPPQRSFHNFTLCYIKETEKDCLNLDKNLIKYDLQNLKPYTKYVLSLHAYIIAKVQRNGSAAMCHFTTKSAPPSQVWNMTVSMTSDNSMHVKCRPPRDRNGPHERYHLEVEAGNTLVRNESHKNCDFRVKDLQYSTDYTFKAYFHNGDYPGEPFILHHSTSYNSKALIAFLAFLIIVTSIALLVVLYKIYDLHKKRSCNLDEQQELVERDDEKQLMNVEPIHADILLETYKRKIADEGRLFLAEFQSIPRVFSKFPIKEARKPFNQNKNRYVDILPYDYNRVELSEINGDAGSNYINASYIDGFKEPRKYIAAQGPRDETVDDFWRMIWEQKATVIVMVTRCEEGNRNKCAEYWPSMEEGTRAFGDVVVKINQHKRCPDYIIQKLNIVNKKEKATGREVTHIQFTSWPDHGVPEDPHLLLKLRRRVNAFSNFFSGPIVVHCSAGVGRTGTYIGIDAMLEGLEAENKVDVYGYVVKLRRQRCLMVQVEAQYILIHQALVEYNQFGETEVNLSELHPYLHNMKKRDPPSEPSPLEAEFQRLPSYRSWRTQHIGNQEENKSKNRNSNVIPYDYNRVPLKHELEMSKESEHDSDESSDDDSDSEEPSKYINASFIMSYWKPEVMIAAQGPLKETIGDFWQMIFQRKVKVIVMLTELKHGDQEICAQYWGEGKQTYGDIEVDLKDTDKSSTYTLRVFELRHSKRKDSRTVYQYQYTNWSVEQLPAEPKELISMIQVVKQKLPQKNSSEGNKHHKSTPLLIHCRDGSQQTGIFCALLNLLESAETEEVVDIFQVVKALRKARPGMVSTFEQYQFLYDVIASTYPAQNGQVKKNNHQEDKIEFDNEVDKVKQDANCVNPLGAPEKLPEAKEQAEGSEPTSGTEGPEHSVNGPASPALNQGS

Compound	IC50 (SHP1) [µM]	IC50 (LMWPTP; pNPP at Km, pH 7.0, 25° C.) [µM]	IC50 (Laforin) [µM]	IC50 (PEST) [µM]	other results
O=C(Nc1ccc(-n2ccnc2)cc1)C(c1ccccc1)S(=O)(=O)O (centres unmarked) [Compound L319M63]	> 200				IC50 (LMWPTP; pH 7): 7.7 µM; IC50 (TbPTP1): > 100 µM; IC50 (STEP): > 100 µM; IC50 (VHX): > 200 µM
O=C(Nc1nnc(-c2ccccc2)s1)C(c1ccccc1)S(=O)(=O)O (centres unmarked) [Compound L319M73-2]		10.2	1.3	> 200	Fold specificity for Laforin over LMPTP (Laforin; ratio of IC50): 8 fold; Fold specificity for Laforin over other PTPs (Laforin; ratio of IC50): 100 fold
O=C(Nc1nc2ccccc2s1)C(c1ccccc1Cl)S(=O)(=O)O (centres unmarked) [Compound L319N15-18]		> 100	32		IC50 (PTP1B): > 100 µM; IC50 (LYP): > 100 µM; IC50 (SHP2): > 100 µM; IC50 (CD45): > 100 µM
O=C(O)Cc1csc(NC(=O)C(c2ccccc2)S(=O)(=O)O)n1 (centres unmarked) [Compound L319N72]		98.1	4.8	> 200	
CO[C@@]1(NC(=O)C(C(=O)O)c2ccc(O)cc2)C(=O)N2C(C(=O)O)=C(CSc3nnnn3C)CO[C@@H]21 (some centres unmarked) [moxalactam, reference compound]	170				
